Results reported in article PMC11421850, “Identification of pharmacological inducers of a reversible hypometabolic state for whole organ preservation” (eLife, 2024).

Biological target: T1, delta opioid receptor (DOR) (Homo sapiens, UniProt P41143)
T1 construct: gene OPRD1
Experiment: biochemical

T1 sequence (P41143 whole entry): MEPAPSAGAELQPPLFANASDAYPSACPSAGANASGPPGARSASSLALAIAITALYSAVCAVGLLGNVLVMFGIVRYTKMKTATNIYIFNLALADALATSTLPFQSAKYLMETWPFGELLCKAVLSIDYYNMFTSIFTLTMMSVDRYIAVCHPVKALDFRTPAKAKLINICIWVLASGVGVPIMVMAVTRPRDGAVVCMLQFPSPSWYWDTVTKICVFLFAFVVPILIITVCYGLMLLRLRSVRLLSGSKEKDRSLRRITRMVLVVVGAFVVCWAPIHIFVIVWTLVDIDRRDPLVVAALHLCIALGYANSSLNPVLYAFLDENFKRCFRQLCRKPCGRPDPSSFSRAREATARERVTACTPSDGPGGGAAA

For `CCN(CC)C(=O)c1ccc([C@H](c2cccc(OC)c2)N2C[C@@H](C)OC[C@@H]2C)cc1` [WB3], which IC50 is on record?
Its IC50 is 3.47 µM.
